PMC8432172, “Properties of Transport Mediated by the Human Organic Cation Transporter 2 Studied in a Polarized Three-Dimensional Epithelial Cell Culture Model” (International Journal of Molecular Sciences, 2021)
“And” between values parts separate entries of the source, which are not always exact repeats. Identical values can stand only once. “Also recorded” adds a separate entry of the source.

Assays:
[1] = biological target: T1, hOCT2 (Homo sapiens, UniProt O15244); assay: ASP+ uptake (saturation and inhibition) in hOCT2-MDCK cysts; assay type: cell-based; design: The full-length hOCT2 tagged at the carboxy-terminus with GFP (hOCT2-GFP); expressed in transfected cells; host or cells: MDCK II cells (ECACC 00062107), retroviral transduction with pQCXIH, grown as cysts in BME2
T1 sequence (O15244 1-555): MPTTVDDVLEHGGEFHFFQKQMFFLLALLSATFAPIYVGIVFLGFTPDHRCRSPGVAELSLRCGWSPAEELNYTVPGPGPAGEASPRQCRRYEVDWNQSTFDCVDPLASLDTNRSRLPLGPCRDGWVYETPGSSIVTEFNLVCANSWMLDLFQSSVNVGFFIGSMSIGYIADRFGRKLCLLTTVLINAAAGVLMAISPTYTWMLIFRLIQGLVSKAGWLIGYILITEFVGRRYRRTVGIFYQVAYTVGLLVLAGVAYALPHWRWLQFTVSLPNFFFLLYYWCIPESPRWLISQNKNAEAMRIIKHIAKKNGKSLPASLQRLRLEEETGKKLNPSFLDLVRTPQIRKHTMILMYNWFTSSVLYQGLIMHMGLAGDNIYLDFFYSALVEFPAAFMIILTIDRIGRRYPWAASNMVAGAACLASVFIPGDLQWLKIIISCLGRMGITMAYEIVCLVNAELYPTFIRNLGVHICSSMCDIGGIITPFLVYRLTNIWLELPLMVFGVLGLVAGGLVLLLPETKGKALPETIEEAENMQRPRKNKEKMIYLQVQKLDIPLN

[2] = biological target: T1, hOCT2; assay: ASP+ uptake (saturation and inhibition) in hOCT2-HEK cells; assay type: cell-based; design: expressed in transfected cells; host or cells: HEK293, stably transfected; gift of Prof; Koepsell (University of Würzburg)
[3] = tested on: endogenous canine OCT2; assay: ASP+ uptake in EV-MDCK cysts (empty vector); assay type: cell-based; settings: EV-MDCK cysts (GFP alone); 1 mM TPA+
Procedure: Upon the addition of 4 µM ASP^+, an increase in cellular fluorescence was observed over time. This fluorescence increase was much higher in the hOCT2-MDCK than the EV-MDCK cysts. […] The slope of the linear range of the ASP^+ uptake increase measured in the first 2 min after ASP^+ addition (arbitrary fluorescence units/[…]) was used as the measurement of the transporter function.
The organic cation ASP^+ was used as a fluorescent substrate of hOCT2 [54]. […] To evaluate hOCT2 function, cellular fluorescence was measured before and after ASP^+ addition in the hOCT2-HEK cells and hOCT2-MDCK and EV-MDCK cysts. Transport measurements were performed at T = 37 °C.

[4] = tested on: hOCT2; assay: Acute regulation of ASP+ uptake in hOCT2-HEK cells (10 min incubation with kinase/calmodulin inhibitors); assay type: cell-based, human; settings: 1 µM ASP+, calmidazolium 5 µM, aminogenistein 10 µM, TBBz 10 µM
Procedure: (§1) The organic cation ASP^+ was used as a fluorescent substrate of hOCT2 [54]. […] To evaluate hOCT2 function, cellular fluorescence was measured before and after ASP^+ addition in the hOCT2-HEK cells and hOCT2-MDCK and EV-MDCK cysts. Transport measurements were performed at T = 37 °C. […] The effects of the CKII regulation pathway on the kinetic parameters of ASP^+ uptake in hOCT2- MDCK-3D were investigated, comparing the saturation curves in the presence or absence of the regulator.

[5] = biological target: T1, hOCT2; assay: Acute regulation of ASP+ uptake and ASP+ transport kinetics in hOCT2-MDCK cysts (10 min incubation with kinase/calmodulin inhibitors); assay type: cell-based; design: The full-length hOCT2 tagged at the carboxy-terminus with GFP (hOCT2-GFP); expressed in transfected cells; host or cells: MDCK II cells (ECACC 00062107), retroviral transduction with pQCXIH, grown as cysts in BME2; settings: for Acute regulation of initial ASP+ uptake after 10 min incubation: 4 µM ASP+, calmidazolium 5 µM, aminogenistein 10 µM, TBBz 10 µM
Procedure: as §1

[6] = hOCT2-MDCK cysts, 4 µM ASP+, 37 °C
[7] = hOCT2-HEK cells, 1 µM ASP+, 37 °C
[8] = hOCT2-MDCK cysts, 4 µM ASP+, 37 °C, read-out: IC50 for the inhibition of ASP+ uptake
[9] = hOCT2-HEK cells, 1 µM ASP+, 37 °C, read-out: IC50 for the inhibition of ASP+ uptake

SMILES	logIC50 ± SEM for the inhibition of ASP+ uptake [1, 6]	logIC50 ± SEM for the inhibition of ASP+ uptake [2, 7]	IC50 [1, 8] [µM]	IC50 [2, 9] [µM]	Acute regulation of initial ASP+ uptake after 10 min incubation [4]	Acute regulation of initial ASP+ uptake after 10 min incubation [5]	also measured
CCCCC[N+](CCCCC)(CCCCC)CCCCC [TPA^+, tetrapentylammonium]	−6.1 ± 0.1 and −6.04 ± 0.05	−5.9 ± 0.2 and −5.85 ± 0.11					IC50 [1]: 0.9 µM; Inhibition of uptake of 4 µM ASP+ by 1 mM competitor ([1]; hOCT2-MDCK cysts, 1 mM TPA+ in uptake buffer): almost completely inhibited; also recorded: completely suppressed; IC50 [2]: 1.4 µM; Inhibition of uptake of 4 µM ASP+ by 1 mM competitor [3]: significantly inhibited
CCS(=O)(=O)N1CC(CC#N)(n2cc(-c3ncnc4[nH]ccc34)cn2)C1 [Baricitinib, baricitinib]	−4.81 ± 0.06	−6.00 ± 0.06	15.4	1.1			logIC50 ± SEM for the inhibition of ASP+ uptake ([1]; hOCT2-MDCK cysts, 4 µM ASP+, 37 °C, listed as baricitinib): −4.8 ± 0.1; logIC50 ± SEM for the inhibition of ASP+ uptake ([2]; hOCT2-HEK cells, 1 µM ASP+, 37 °C, listed as baricitinib): −6.0 ± 0.1
Clc1ccc(C(c2ccc(Cl)cc2)n2cc[n+](CC(OCc3ccc(Cl)cc3Cl)c3ccc(Cl)cc3Cl)c2)cc1 (stereo not drawn) [calmidazolium]					rapid decrease in ASP^+ uptake	rapid decrease in ASP^+ uptake	
CN(C)C(=N)N=C(N)N [Metformin, metformin]	−3.05 ± 0.09	−3.10 ± 0.11	884	804			logIC50 ± SEM for the inhibition of ASP+ uptake ([1]; hOCT2-MDCK cysts, 4 µM ASP+, 37 °C, listed as metformin): −3.1 ± 0.1; logIC50 ± SEM for the inhibition of ASP+ uptake ([2]; hOCT2-HEK cells, 1 µM ASP+, 37 °C, listed as metformin): −3.1 ± 0.1
CC[N+](CC)(CC)CC [TEA^+, tetraethylammonium]	−4.7 ± 0.1 and −4.67 ± 0.11	−5.1 ± 0.1 and −5.12 ± 0.08	21.3	7.6			
Nc1ccc(-c2cc(=O)c3cc(O)ccc3o2)cc1 [aminogenistein]					rapid decrease in ASP^+ uptake	rapid decrease in ASP^+ uptake	
Brc1c(Br)c(Br)c2[nH]cnc2c1Br [TBBz, 4,5,6,7-tetrabromobenzimidazole]					only in the hOCT2-MDCK cysts	rapid decrease in ASP^+ uptake only in the hOCT2-MDCK cysts	Vmax of ASP+ transport under CKII inhibition (+TBBz) ([5]; 10 min preincubation with 10 µM TBBz): 3.9 ± 0.8 a.u./s^2
CN(C)c1ccc(C=Cc2cc[n+](C)cc2)cc1 [ASP^+, 4-(4-(dimethylamino)styryl)-N-methylpyridinium]							Km ([1]; hOCT2-MDCK cysts, 0-20 µM ASP+, uptake in presence of 1 mM TPA+ subtracted, 37 °C, read-out: Km ± SEM of specific ASP+ uptake): 3.6 ± 1.2 µM; Km ([2]; hOCT2-HEK cells, 0-20 µM ASP+, uptake in presence of 1 mM TPA+ subtracted, 37 °C, read-out: Km ± SEM of specific ASP+ uptake): 3.1 ± 0.2 µM; Vmax of ASP+ transport, control (-TBBz) ([5]; 10 min preincubation with control solution): 6.1 ± 0.1 a.u./s^2; Km ([5]; 10 min preincubation with control solution, read-out: Km of ASP+ transport, control (-TBBz)): 2.6 ± 0.2 µM
